Earlier results, collected in patent US7947677B2, “Spirolactam tricyclic CGRP receptor antagonists” (Merck Sharp & Dohme Corp., priority 2005, dated 2011).
No end group written: not given here.

Tests used:
facial blood flow [1] = details: marmoset, electrical stimulation of the trigeminal ganglion (Doods et al. 2000)
middle meningeal artery = details: rats, electrical stimulation of the dura mater, prior administration (Williamson et al. 1997)
facial blood flow [2] = details: rat, trigeminal ganglion stimulation (Escott et al. 1995)

In the case of NCCCC[C@H](NC(=O)[C@@H](Cc1cc(Br)c(O)c(Br)c1)NC(=O)N1CCC(N2Cc3ccccc3NC2=O)CC1)C(=O)N1CCN(c2ccncc2)CC1 [BIBN4096BS], the “increase in facial blood flow” value (facial blood flow [1]) is listed as “blocked”.
For “CGRP(8-37): a fragment of CGRP that lacks seven N-terminal amino acid residues; a peptide CGRP antagonist (VTHRLAGLLSRSGGVVKNNFVPTNVGSKAF; ends and bridges not checked; UniProt P06881 90-119, looked up, fragment)”, the “increase of the diameter of the middle meningeal artery” value (middle meningeal artery) is given as “blocked” and the “increased facial blood flow” value (facial blood flow [2]) is given as “inhibited”.
